Test results reported in US20220202811A1, “TREATMENT FOR RETINOIC ACID RECEPTOR-RELATED ORPHAN RECEPTOR Ɣ (RORƔ)-DEPENDENT CANCERS” (The Regents of the University of California, priority 2019, published 2022).

Assays:
Fast Growing (FG) cells = experiment: Fast Growing (FG) cell xenografts in mice; format: in vivo, human
Description: FIG. 45 is a compilation of all data from mice bearing PDX or FG cancer xenographs, including PDX1424, PDX1444, and FG.

[1] = test system: tumor-bearing KP^f/fC mice; experiment: tumor-bearing KP^f/fC mice in vivo (AZD-0284, JTE-151); design: species or system mouse
Experimental: Next, the impact of JTE-151 was tested on tumor-bearing KP^f/fC mice in vivo. FIG. 51 is a schematic of the experimental design. KP^f/fC mice were allowed to develop tumors, then the tumor-bearing mice received vehicle or JTE-151, followed by analysis of the tumors at the end of the experiments. Different doses of JTE-151, i.e., at 30 mg/kg, 90 mg/kg, and 120 mg/kg body weight, were tested.
FIGS. 53-56 show examples of individual experiments where tumor-bearing KP^f/fC mice was treated with either vehicle or 90 mg/kg JTE-151 for 3 weeks in regimens as specified in the figures. For example, in FIGS. 53 and 55, the mice received 90 mg/kg JTE-151 once daily for 3 weeks. In FIG. 54, the mice received 90 mg/kg JTE-151 once daily for 1 week, followed by twice daily for another 2 weeks. At the end of each experiment, tumors were analyzed for different parameters including tumor mass, cell number, EpCAM positivity, CD133 positivity, EpCAM/CD133 positivity, cellularity, and IL-17 level. […] It was not clear whether the initial tumor size of the non-responder mouse was unusually large due to variances between different mice.
Similarly, the anti-cancer effect of JTE-151 was tested on tumor-bearing KP^f/fC mice in vivo at a higher dose of 120 mg/kg (FIGS. 59-61 showing three individual experiments). For each experiment, one mouse was given vehicle treatment, and another mouse was given the JTE-151 regimen as specified in the figures. For example, in FIG. 59, the JTE-151 mouse received 120 mg/kg body weight of JTE-151 for 2 weeks and then 90 mg/kg JTE-151 for 1 week. In the first 1.5 weeks, JTE-151 was given once daily, and in the second 1.5 weeks, JTE-151 was given twice daily. As previously, at the end of each experiment, tumors were analyzed for different parameters including cell number, EpCAM positivity, EpCAM/CD133 positivity, and IL-17 level. In each of FIGS. 59-61, the horizontal axis of each graph represents the target (vehicle vs. JTE-151 mouse), and the vertical axis represents the specified measurement.

[2] = test system: primary patient-derived PDX202 pancreatic cancer cells; experiment: PDX202 organoid assay; format: cell-based, human; details: 3 μM JTE-151 alone
Experimental: Moreover, the anti-cancer effect of JTE-151 was determined in an organoid assay using pancreatic cancer cells derived from mice bearing primary patient-derived xenografts.

[3] = test system: autochthonous tumor-bearing KP^f/fC mice; experiment: autochthonous KP^f/fC survival study
[4] = test system: LuCA KP lung cancer cells; experiment: lung cancer tumor sphere formation; format: cell-based; details: 0.3 μM, 0.6 μM, 1 μM, and 1.2 μM; relative to control
Description: Then the number of formed tumor spheres were counted and quantified as relative to control.

[5] = test system: organoids derived from acinar tumors; experiment: acinar tumor organoids (Msi2-Cre^ER/LSL-Myc); format: cell-based, mouse
Description: A new Msi2-Cre^ER mouse model of aggressive pancreatic cancer was created, in which Cre is driven off of the Msi2 promoter and can be conditionally triggered by tamoxifen delivery. This Msi2-Cre^ER driver can be crossed into mice bearing distinct mutations such as Ras (leading to myeloproliferative neoplasia), p53, or Myc. When the Msi2-Cre^ER driver was crossed into an LSL-MyC^T58A model developed by Dr. Robert Wechsler-Reya at SBP/Rady, La Jolla, Calif. (Mollaoglu et al., 2017) (FIG. 79), it produced multiple cancer types including small cell lung cancer, choroid plexus tumors, and early stage kidney tumors.

pancreatic cancer cell = experiment: in vitro sphere formation, antagonists of Table 2; format: cell-based, mouse; details: extent of growth suppression relative to control
Experimental: Pancreatic tumorsphere formation assays were performed and modified from (Rovira et al., 2010). Briefly, low-passage (<6 passages) WT or REM2-KP^f/fC cell lines were infected with lentiviral particles containing shRNAs; positively infected (red) cells were sorted 72 hours after transduction. 100-300 infected cells were suspended in tumorsphere media: 100 μl DMEM F-12 (Gibco, Life Technologies) containing 1× B-27 supplement (Gibco, Life Technologies), 3% FBS, 100 μM B-mercaptoethanol (Gibco, Life Technologies), 1× non-essential amino acids (Gibco, Life Technologies), 1× N2 supplement (Gibco, Life Technologies), 20 ng/ml EGF (Gibco, Life Technologies), 20 ng/ml bFGF2 (Gibco, Life Technologies), and 10 ng/ml ESGRO mLIF (Thermo Fisher). Cells in media were plated in 96-well ultra-low adhesion culture plates (Costar) and incubated at 37° C. for 7 days. KP^f/fC in vitro tumorsphere formation studies were conducted at a minimum of n=3 independent wells per cell line across two independent shRNA of n=3 wells; however, the majority of these experiments were additionally completed in >1 independently-derived cell lines n=3, at n=3 wells per shRNA.

[6] = AZD-0284 in combination with gemcitabine
[7] = 90 mg/kg JTE-151, 3 weeks, compilation (FIG. 57)
[8] = 120 mg/kg JTE-151 regimen, mice that responded

CC(=O)N1Cc2cc(S(C)(=O)=O)ccc2[C@@H]1C(=O)Nc1ccc(C(O)(C(F)(F)F)C(F)(F)F)cc1 [AZD-0284]
EpCam+/CD133+ tumor stem cells (Fast Growing (FG) cells; 90 mg/kg AZD-0284): decrease
total cell number (Fast Growing (FG) cells; 90 mg/kg AZD-0284): decrease
EpCam+/CD133+ tumor stem cells (Fast Growing (FG) cells; [6]): decrease
total cell number (Fast Growing (FG) cells; [6]): decrease

Cc1ccc(NC(=O)C[C@H](CCC(=O)O)c2noc([C@H]3C[C@@H](CC(C)(C)C)C3)c2C2CC2)c(Cl)c1 [JTE-151, (4S)-6-[(2-chloro-4-methylphenyl)amino]-4-{4-cyclopropyl-5-[cis-3-(2,2-dimethylpropyl)cyclobutyl]isoxazol-3-yl}-6-oxohexanoic acid]
EpCam+/CD133+ tumor stem cells ([1]; 30 mg/kg JTE-151 once daily for about 3 weeks (FIG. 52)): loss
mice that did not show a response ([1]; 90 mg/kg JTE-151 (FIG. 56)): 1 out of 5
EpCam+/CD133+ tumor stem cells [1, 7]: loss
tumor mass [1, 7]: reduced
tumor mass ([1]; 90 mg/kg JTE-151, 3 weeks, individual experiments (FIGS. 53-55)): reduced
mice that responded to the drug ([1]; 120 mg/kg JTE-151 regimen (FIGS. 59-61)): At least two of the three mice
EpCam+ tumor epithelial cells [1, 8]: loss
EpCam+/CD133+ tumor stem cells [1, 8]: loss
EpCam+/CD133+ tumor stem cells ([1]; JTE-151 at either 30 mg/kg or 90 mg/kg, 3 weeks (FIG. 58)): loss
organoid growth [2]: inhibited

OC(c1ccc(-c2ccc(CN3CCN(Cc4ccncc4)CC3)cc2)c(F)c1)(C(F)(F)F)C(F)(F)F [SR2211]
mice alive ([3]; 25 days after the initiation of treatment): 75%
mice alive ([3]; 45 days after treatment initiation): 50%
Hazard ratio ([3]; SR2211 vs vehicle): 0.16
median survival ([3]; treated daily from 8 weeks of age until moribund): 38.5 days
decreased risk of death ([3]; vs vehicle): 6 fold
tumor sphere formation [4]: significantly reduced
organoid growth ([5]; 3 μM or 6 μM SR2211): significantly reduced
sensitivity of organoids ([5]; acinar tumors): sensitive
in vitro sphere formation (pancreatic cancer cell): ✓✓✓✓ (dose response observed; growth suppressed by 8-fold or more relative to control)
